Earlier results as cited in patent US6939987B2, “Method for producing Aspartame derivative, method for purifying the same, crystals thereof and uses of the same” (Ajinomoto Co., Inc., priority 1999, dated 2005).

Details: relative to sucrose; reported in International Patent Publication WO94/11391

COC(=O)[C@H](Cc1ccccc1)NC(=O)[C@H](CC(=O)O)NCCC(C)(C)C [N-[N-(3,3-dimethylbutyl)-L-α-aspartyl]-L-phenylalanine 1-methyl ester]
sweetening potency: 10000 times that of sucrose
